Structures can show the parent of a compound that is named as a salt.
Test system: two key underarm bacteria strains
Test: Raw material microbial inhibition, verbal summary of Table 2
Assay type: cell-based
Conditions: both strains of Table 2, in words
Protocol: The data in Table 2 above was generated with the following test method.
3. Microbial Strains • Staphylococcus epidermidis (clinical isolate) • Corynebacterium mucofaciens (clinical isolate)
In row A of a 96 deep well plate pipette 180 ul of sterile BHI with 1% Tween 80 as a negative growth control. All other wells receive 180 ul of inoculum. From the master plate introduce 20 ul to the corresponding row in the test plate using an 8-channel pipette. Loaded plates are placed on a plate shaker in the 37° C. incubator and incubated overnight. The next day read the O.D. 600 on a plate reader. The MIC is the last well from the right that has no bacterial growth.

| SMILES | performance against the bacteria as raw materials |
| --- | --- |
| O=C([O-])[O-].[Ca+2] [Ca Carbonate, calcium carbonate] | performing moderately well |
| CC(C)=CCCC(C)=CC=O [Citral] | performing well |
| COC(=O)CCC(=O)OC [Dimethyl Succinate] | performing well |
| C=CCc1ccc(O)c(OC)c1 [Eugenol] | performing well |
| C=CCCCCCCCCC(=O)N[C@@H](Cc1ccccc1)C(=O)O [Sepiwhite] | performing well |
| CCOC(=O)CC(O)(CC(=O)OCC)C(=O)OCC [Triethyl citrate] | performing well |
| Cc1cc(CC(C)CC(C)(C)C)n(O)c(=O)c1.NCCO (stereo not shown) [piroctone olamine] | perform particularly well |

Reference: patent publication US11540999B2, “Deodorant compositions” (The Procter & Gamble Company, priority 2017, dated 2023)
